The values that follow come from patent EP0087750B2, “Amino acid preparations containing glutaminic residues” (Kabi Pharmacia GmbH, priority 1982, dated 1994).

Values after ≈ are worked out from the molar mass of the structure shown. Residues, ends and D or L forms follow the SMILES beside them.

A short description of one data set: physchem. Type of data set: physicochemical. Conditions: water. From the text: (§1) Es wurde nun erkannt, daß das Glutamin als an der α-Aminogruppe durch α-Aminoacylreste substituiertes Derivat, d. h. in Form der Tri- oder Dipeptide des Glutamins dem Organismus, insbesondere durch Infusionslösungen, zugeführt werden kann, ohne Gefahr der Bildung des toxischen Cyclisierungsprodukts. Diese Di- und Tripeptide des Glutamins mit anderen Aminosäuren, wie Glycin, Alanin, Leucin, Isoleucin oder Valin, sind sehr leicht wasserlöslich, so daß sie gegebenenfalls in relativ hoher Konzentration in den Infusionslösungen angewendet werden können, wobei gleichzeitig dem Organismus auch andere Aminosäuren zugeführt werden, ohne daß dadurch osmotische Problem auftreten. Die Löslichkeit beispielsweise des Gly-Ala-Gln beträgt 680 g/L H₂O, während die freien Aminosäuren eine geringere Löslichkeit besitzen: […]: 225 g/L H₂O; Alanin: 158 g/L H₂O und Glutamin: […] H₂O.

The nature of another data set: Solubility in water. It is filed as physicochemical.
Excerpt: as §1

In data set [1] the test system is Hydrolasen in den Geweben des Organismus. Particulars: in vivo, cited from earlier work.

With `C[C@H](N)C(=O)O` [Alanin], the concentration in solution in “physchem” (solubility) came to 158 mg/mL (≈ 1770 mM).

With `NC(=O)CC[C@H](N)C(=O)O` [Glutamin], the solubility in “physchem” turned out to be 325 mg/mL (≈ 2220 mM).

As for `C[C@H](NC(=O)CN)C(=O)N[C@@H](CCC(N)=O)C(=O)O` [Gly-Ala-Gln, Glycyl-L-alanyl-L-glutamin] (H-Gly-Ala-Gln-OH), the Löslichkeit in “Solubility in water” is reported as 680 g/L H₂O.

In “physchem”, Glycerin registered a Löslichkeit of 225 g/L H₂O.

As for Glycyl-leucin, the “Elimination aus dem Plasma” value in data set [1] (iv) is recorded as “schnell aus dem Plasma eliminiert”. Moreover, the “Spaltung durch Hydrolasen in den Geweben” value in data set [1] is given as “gut gespalten”.

Broadly, the solubility is how much of the substance goes into solution per volume.
